ChEMBL document CHEMBL1641605, “Diphenylpropynone derivatives as probes for imaging β-amyloid plaques in Alzheimer's brains” (Bioorg Med Chem Lett, 2011)
One block for each compound: values may come before it. Activity calls are given as the source filed them. The rule behind the calls is not given here.

Tests used:
[1] = target: Amyloid-beta precursor protein (Homo sapiens, UniProt P05067); assay: Displacement of [125I]DMIC from Amyloid beta (1 to 42) after 3 hrs by gamma counting
Liver [2] = assay: Biodistribution in ddY mouse liver assessed as per gram of tissue at 0.3 to 0.5 uCi, iv after 10 mins by gamma counting; assay type: ADME, organism-based; conditions: in vivo
Pancreas [3] = assay: Biodistribution in ddY mouse pancreas assessed as per gram of tissue at 0.3 to 0.5 uCi, iv after 60 mins by gamma counting; assay type: ADME, organism-based; conditions: in vivo, 1 h
Stomach [4] = assay: Biodistribution in ddY mouse stomach assessed as per gram of tissue at 0.3 to 0.5 uCi, iv after 10 mins by gamma counting; assay type: ADME, organism-based; conditions: in vivo
Heart [5] = assay: Biodistribution in ddY mouse heart assessed as per gram of tissue at 0.3 to 0.5 uCi, iv after 10 mins by gamma counting; assay type: ADME, organism-based; conditions: in vivo
Spleen [6] = assay: Biodistribution in ddY mouse spleen assessed as per gram of tissue at 0.3 to 0.5 uCi, iv after 30 mins by gamma counting; assay type: ADME, organism-based; conditions: in vivo, 0.5 h
Brain [7] = assay: Biodistribution in ddY mouse brain assessed as per gram of tissue at 0.3 to 0.5 uCi, iv after 2 mins by gamma counting; assay type: ADME, organism-based; conditions: in vivo
Kidney [8] = assay: Biodistribution in ddY mouse kidney assessed as per gram of tissue at 0.3 to 0.5 uCi, iv after 30 mins by gamma counting; assay type: ADME, organism-based; conditions: in vivo, 0.5 h
Blood [9] = assay: Biodistribution in ddY mouse blood assessed as per gram of tissue at 0.3 to 0.5 uCi, iv after 2 mins by gamma counting; assay type: ADME, organism-based; conditions: in vivo
Blood [10] = assay: Biodistribution in ddY mouse blood assessed as per gram of tissue at 0.3 to 0.5 uCi, iv after 60 mins by gamma counting; assay type: ADME, organism-based; conditions: in vivo, 1 h
Spleen [11] = assay: Biodistribution in ddY mouse spleen assessed as per gram of tissue at 0.3 to 0.5 uCi, iv after 2 mins by gamma counting; assay type: ADME, organism-based; conditions: in vivo
Spleen [12] = assay: Biodistribution in ddY mouse spleen assessed as per gram of tissue at 0.3 to 0.5 uCi, iv after 60 mins by gamma counting; assay type: ADME, organism-based; conditions: in vivo, 1 h
Brain [13] = assay: Biodistribution in ddY mouse brain assessed as per gram of tissue at 0.3 to 0.5 uCi, iv after 30 mins by gamma counting; assay type: ADME, organism-based; conditions: in vivo, 0.5 h
Liver [14] = assay: Biodistribution in ddY mouse liver assessed as per gram of tissue at 0.3 to 0.5 uCi, iv after 2 mins by gamma counting; assay type: ADME, organism-based; conditions: in vivo
Intestine [15] = assay: Biodistribution in ddY mouse intestine assessed as per organ at 0.3 to 0.5 uCi, iv after 10 mins by gamma counting; assay type: ADME, organism-based; conditions: in vivo
Heart [16] = assay: Biodistribution in ddY mouse heart assessed as per gram of tissue at 0.3 to 0.5 uCi, iv after 60 mins by gamma counting; assay type: ADME, organism-based; conditions: in vivo, 1 h
Intestine [17] = assay: Biodistribution in ddY mouse intestine assessed as per organ at 0.3 to 0.5 uCi, iv after 2 mins by gamma counting; assay type: ADME, organism-based; conditions: in vivo
Brain [18] = assay: Biodistribution in ddY mouse brain assessed as per gram of tissue at 0.3 to 0.5 uCi, iv after 10 mins by gamma counting; assay type: ADME, organism-based; conditions: in vivo
Brain [19] = assay: Biodistribution in ddY mouse brain assessed as per gram of tissue at 0.3 to 0.5 uCi, iv after 60 mins by gamma counting; assay type: ADME, organism-based; conditions: in vivo, 1 h
Blood [20] = assay: Biodistribution in ddY mouse blood assessed as per gram of tissue at 0.3 to 0.5 uCi, iv after 10 mins by gamma counting; assay type: ADME, organism-based; conditions: in vivo
Liver [21] = assay: Biodistribution in ddY mouse liver assessed as per gram of tissue at 0.3 to 0.5 uCi, iv after 60 mins by gamma counting; assay type: ADME, organism-based; conditions: in vivo, 1 h
Kidney [22] = assay: Biodistribution in ddY mouse kidney assessed as per gram of tissue at 0.3 to 0.5 uCi, iv after 10 mins by gamma counting; assay type: ADME, organism-based; conditions: in vivo
Blood [23] = assay: Biodistribution in ddY mouse blood assessed as per gram of tissue at 0.3 to 0.5 uCi, iv after 30 mins by gamma counting; assay type: ADME, organism-based; conditions: in vivo, 0.5 h
Kidney [24] = assay: Biodistribution in ddY mouse kidney assessed as per gram of tissue at 0.3 to 0.5 uCi, iv after 60 mins by gamma counting; assay type: ADME, organism-based; conditions: in vivo, 1 h
Heart [25] = assay: Biodistribution in ddY mouse heart assessed as per gram of tissue at 0.3 to 0.5 uCi, iv after 2 mins by gamma counting; assay type: ADME, organism-based; conditions: in vivo
Pancreas [26] = assay: Biodistribution in ddY mouse pancreas assessed as per gram of tissue at 0.3 to 0.5 uCi, iv after 10 mins by gamma counting; assay type: ADME, organism-based; conditions: in vivo
Liver [27] = assay: Biodistribution in ddY mouse liver assessed as per gram of tissue at 0.3 to 0.5 uCi, iv after 30 mins by gamma counting; assay type: ADME, organism-based; conditions: in vivo, 0.5 h
Pancreas [28] = assay: Biodistribution in ddY mouse pancreas assessed as per gram of tissue at 0.3 to 0.5 uCi, iv after 2 mins by gamma counting; assay type: ADME, organism-based; conditions: in vivo
Intestine [29] = assay: Biodistribution in ddY mouse intestine assessed as per organ at 0.3 to 0.5 uCi, iv after 30 mins by gamma counting; assay type: ADME, organism-based; conditions: in vivo, 0.5 h
Stomach [30] = assay: Biodistribution in ddY mouse stomach assessed as per gram of tissue at 0.3 to 0.5 uCi, iv after 30 mins by gamma counting; assay type: ADME, organism-based; conditions: in vivo, 0.5 h
Stomach [31] = assay: Biodistribution in ddY mouse stomach assessed as per gram of tissue at 0.3 to 0.5 uCi, iv after 2 mins by gamma counting; assay type: ADME, organism-based; conditions: in vivo
Pancreas [32] = assay: Biodistribution in ddY mouse pancreas assessed as per gram of tissue at 0.3 to 0.5 uCi, iv after 30 mins by gamma counting; assay type: ADME, organism-based; conditions: in vivo, 0.5 h
Intestine [33] = assay: Biodistribution in ddY mouse intestine assessed as per organ at 0.3 to 0.5 uCi, iv after 60 mins by gamma counting; assay type: ADME, organism-based; conditions: in vivo, 1 h
Heart [34] = assay: Biodistribution in ddY mouse heart assessed as per gram of tissue at 0.3 to 0.5 uCi, iv after 30 mins by gamma counting; assay type: ADME, organism-based; conditions: in vivo, 0.5 h
Kidney [35] = assay: Biodistribution in ddY mouse kidney assessed as per gram of tissue at 0.3 to 0.5 uCi, iv after 2 mins by gamma counting; assay type: ADME, organism-based; conditions: in vivo
Spleen [36] = assay: Biodistribution in ddY mouse spleen assessed as per gram of tissue at 0.3 to 0.5 uCi, iv after 10 mins by gamma counting; assay type: ADME, organism-based; conditions: in vivo
Stomach [37] = assay: Biodistribution in ddY mouse stomach assessed as per gram of tissue at 0.3 to 0.5 uCi, iv after 60 mins by gamma counting; assay type: ADME, organism-based; conditions: in vivo, 1 h
Mus musculus [38] = species: Mus musculus; assay: Binding affinity to beta-amyloid in wild type mouse brain after 3 mins by microscopic analysis; assay type: tissue-based
Mus musculus [39] = species: Mus musculus; assay: Binding affinity to beta-amyloid in Tg2576 transgenic mouse brain after 3 mins by microscopic analysis; assay type: tissue-based

Chain of Amyloid-beta precursor protein (P05067 whole entry): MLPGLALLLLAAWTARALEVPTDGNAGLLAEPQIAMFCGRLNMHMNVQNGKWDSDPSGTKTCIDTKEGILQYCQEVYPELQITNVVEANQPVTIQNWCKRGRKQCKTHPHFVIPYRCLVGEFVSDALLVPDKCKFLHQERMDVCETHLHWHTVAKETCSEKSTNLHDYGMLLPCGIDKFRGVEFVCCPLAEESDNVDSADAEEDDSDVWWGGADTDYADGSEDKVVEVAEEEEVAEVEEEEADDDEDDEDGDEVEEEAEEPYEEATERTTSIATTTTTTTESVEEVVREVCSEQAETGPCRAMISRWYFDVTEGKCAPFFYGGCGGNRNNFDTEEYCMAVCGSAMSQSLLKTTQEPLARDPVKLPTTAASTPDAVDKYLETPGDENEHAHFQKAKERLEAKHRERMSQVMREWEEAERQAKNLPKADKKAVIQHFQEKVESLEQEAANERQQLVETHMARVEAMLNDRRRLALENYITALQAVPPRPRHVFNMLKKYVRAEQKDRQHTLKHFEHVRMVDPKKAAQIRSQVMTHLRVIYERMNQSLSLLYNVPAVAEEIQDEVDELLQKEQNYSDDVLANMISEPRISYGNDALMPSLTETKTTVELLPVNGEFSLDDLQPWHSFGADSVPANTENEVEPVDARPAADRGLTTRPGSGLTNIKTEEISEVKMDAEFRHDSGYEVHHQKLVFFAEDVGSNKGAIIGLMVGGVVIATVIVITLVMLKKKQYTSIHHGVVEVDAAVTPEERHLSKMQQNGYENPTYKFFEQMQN

Structure (SMILES): CN(C)c1ccc(C#CC(=O)c2ccc([125I])cc2)cc1
Drug uptake (Liver [2]): 15.29 %ID
Drug uptake (Pancreas [3]): 2.09 %ID
Drug uptake (Stomach [4]): 2.97 %ID
Drug uptake (Heart [5]): 7.53 %ID
Drug uptake (Spleen [6]): 5.47 %ID
Drug uptake (Brain [7]): 1.55 %ID
Drug uptake (Kidney [8]): 8.34 %ID
Drug uptake (Blood [9]): 6.19 %ID
Drug uptake (Blood [10]): 3.07 %ID
Drug uptake (Spleen [11]): 4.41 %ID
Drug uptake (Spleen [12]): 4.43 %ID
Drug uptake (Brain [13]): 0.93 %ID
Drug uptake (Liver [14]): 19.96 %ID
Drug uptake (Intestine [15]): 8.44 %ID
Drug uptake (Heart [16]): 4.94 %ID
Drug uptake (Intestine [17]): 2.73 %ID
Drug uptake (Brain [18]): 1.23 %ID
Drug uptake (Brain [19]): 0.76 %ID
Drug uptake (Blood [20]): 5.44 %ID
Drug uptake (Liver [21]): 10.06 %ID
Drug uptake (Kidney [22]): 9.81 %ID
Drug uptake (Blood [23]): 3.94 %ID
Drug uptake (Kidney [24]): 7.75 %ID
Drug uptake (Heart [25]): 10 %ID
Drug uptake (Pancreas [26]): 3.39 %ID
Drug uptake (Liver [27]): 12.02 %ID
Drug uptake (Pancreas [28]): 3.9 %ID
Drug uptake (Intestine [29]): 12.04 %ID
Drug uptake (Stomach [30]): 2.35 %ID
Drug uptake (Stomach [31]): 0.75 %ID
Drug uptake (Pancreas [32]): 2.57 %ID
Drug uptake (Intestine [33]): 14.02 %ID
Drug uptake (Heart [34]): 6.03 %ID
Drug uptake (Kidney [35]): 10.45 %ID
Drug uptake (Spleen [36]): 5.19 %ID
Drug uptake (Stomach [37]): 1.46 %ID

Structure (SMILES): CN(C)c1ccc(C#CC(=O)c2ccc(I)cc2)cc1
Activity (Mus musculus [38]): inactive
Activity (Mus musculus [39]): Active
Ki [1]: 6 nM

Structure (SMILES): CN(C)c1ccc(C#CC(=O)c2ccc(F)cc2)cc1
Ki [1]: 20.4 nM

The remaining lines, values ahead:

Ki [1]: 13.7 nM
Structure (SMILES): COc1ccc(C#CC(=O)c2ccc(I)cc2)cc1

Ki [1]: 326 nM
Structure (SMILES): O=C(C#Cc1ccc(O)cc1)c1ccc(I)cc1
